Measurements: patent US20240051952A1, “HMOX1 INDUCERS” (Mitobridge Inc., priority 2019, published 2024)
pEC50: −log10 of the molar value.

Test system: Human Heme Oxygenase-1 (HMOX-1)
Test: ELISA assay to measure human heme oxygenase-1 (HMOX-1) in HepG2 lysate
Assay type: cell-based
Conditions: fold change of human HMOX1 protein levels relative to DMSO control, HepG2
Procedure, shortened: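 HepG2 cells lysed in PBS/0.5% Triton X-100/1 mM EDTA with protease inhibitors; lysate diluted 1:20. Sandwich ELISA: anti-HO-1 capture (8 μg/ml), biotinylated detection antibody (200 ng/ml), streptavidin-HRP, chemiluminescent read. Quantified against 12-point HO-1 standard curve from 20 ng/ml; incubations at 20 °C.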

Structure (SMILES)	Maximum Fold induction
Cn1c(Nc2nc3cc(F)c(C(F)(F)F)cc3o2)nc2cc(C(=O)O)ccc21 [Example 107, 2-((5-fluoro-6-(trifluoromethyl)benzo[d]oxazol-2-yl)amino)-1-methyl-1H-benzo[d]imidazole-5-carboxylic acid]	45
Cn1c(Nc2nc3ccc(OC(F)(F)F)cc3o2)nc2cc(C(=O)NCC3(O)COC3)ccc21 [Example 52, N-((3-hydroxyoxetan-3-yl)methyl)-1-methyl-2-((6-(trifluoromethoxy)benzo[d]oxazol-2-yl)amino)-1H-benzo[d]imidazole-5-carboxamide]	27
CC(C)c1ccc2nc(Nc3nc4cc(C(=O)O)ccc4n3C)oc2c1 [Example 59, 2-((6-isopropylbenzo[d]oxazol-2-yl)amino)-1-methyl-1H-benzo[d]imidazole-5-carboxylic acid]	30
Cl.Cn1c(Nc2nc3ccccc3o2)nc2cc(C(=O)NCCN)ccc21 [Example 18, N-(2-aminoethyl)-2-(benzo[d]oxazol-2-ylamino)-1-methyl-1H-benzo[d]imidazole-5-carboxamide hydrochloride]	41-52
COCCONC(=O)c1ccc2c(c1)nc(Nc1nc3ccccc3o1)n2C [Example 119, 2-(benzo[d]oxazol-2-ylamino)-N-(2-methoxyethoxy)-1-methyl-1H-benzo[d]imidazole-5-carboxamide]	47-65
O=C(O)c1ccc2c(c1)nc(Nc1nc3ccc(OC(F)(F)F)cc3o1)n2C1CCOCC1 [Example 79, 1-(tetrahydro-2H-pyran-4-yl)-2-((6-(trifluoromethoxy)benzo[d]oxazol-2-yl)amino)-1H-benzo[d]imidazole-5-carboxylic acid]	27-51
COCCOc1ccc2nc(Nc3nc4cc(C(=O)NOCCO)ccc4n3C)oc2c1 [Example 128, N-(2-hydroxyethoxy)-2-((6-(2-methoxyethoxy)benzo[d]oxazol-2-yl)amino)-1-methyl-1H-benzo[d]imidazole-5-carboxamide]	48-75
Cn1c(Nc2nc3ccc(OC(F)(F)F)cc3o2)nc2cc(C(=O)NC(CO)(CO)CO)ccc21 [Example 47, N-(1,3-dihydroxy-2-(hydroxymethyl)propan-2-yl)-1-methyl-2-((6-(trifluoromethoxy)benzo[d]oxazol-2-yl)amino)-1H-benzo[d]imidazole-5-carboxamide]	13-16
Cn1c(Nc2nc3cc(F)c(C(F)(F)F)cc3o2)nc2cc(C(=O)NOCCO)ccc21 [Example 130, 2-((5-fluoro-6-(trifluoromethyl)benzo[d]oxazol-2-yl)amino)-N-(2-hydroxyethoxy)-1-methyl-1H-benzo[d]imidazole-5-carboxamide]	42
Cn1c(Nc2nc3ccccc3o2)nc2cc(C(=O)O)ccc21 [Example 1h, 2-(benzo[d]oxazol-2-ylamino)-1-methyl-1H-benzo[d]imidazole-5-carboxylic acid]	7-38
Cn1c(Nc2nc3cc(C(=O)NCCOCCO)ccc3o2)nc2ccccc21 [Example 118, N-(2-(2-hydroxyethoxy)ethyl)-2-((1-methyl-1H-benzo[d]imidazol-2-yl)amino)benzo[d]oxazole-5-carboxamide]	24
CC(O)COCCNC(=O)c1ccc2c(c1)nc(Nc1nc3ccccc3o1)n2C (stereo not shown) [Example 25]	26
Cn1c(Nc2nc3ccc(OCCO)cc3o2)nc2cc(C(=O)NCCOCCO)ccc21 [Example 104, 2-((6-(2-hydroxyethoxy)benzo[d]oxazol-2-yl)amino)-N-(2-(2-hydroxyethoxy)ethyl)-1-methyl-1H-benzo[d]imidazole-5-carboxamide]	23
CN(C)CC(=O)NCCONC(=O)c1ccc2c(c1)nc(Nc1nc3ccccc3o1)n2C [Example 121, 2-(benzo[d]oxazol-2-ylamino)-N-(2-(2-(dimethylamino)acetamido)ethoxy)-1-methyl-1H-benzo[d]imidazole-5-carboxamide]	22-23

Next, values leading:

Maximum Fold induction	Structure (SMILES)
32-45	Cn1c(Nc2nc3ccc(C(F)(F)F)cc3o2)nc2cc(C(=O)NCCO)ccc21 [Example 33, N-(2-hydroxyethyl)-1-methyl-2-((6-(trifluoromethyl)benzo[d]oxazol-2-yl)amino)-1H-benzo[d]imidazole-5-carboxamide]
37	CC(O)CNC(=O)c1ccc2c(c1)nc(Nc1nc3ccc(C(F)(F)F)cc3o1)n2C (stereo not shown) [Example 35, N-(2-hydroxypropyl)-1-methyl-2-((6-(trifluoromethyl)benzo[d]oxazol-2-yl)amino)-1H-benzo[d]imidazole-5-carboxamide]
12-20	COc1ccc2nc(Nc3nc4cc(C(=O)NCCO)ccc4n3C)oc2c1 [Example 92, N-(2-hydroxyethyl)-2-((6-methoxybenzo[d]oxazol-2-yl)amino)-1-methyl-1H-benzo[d]imidazole-5-carboxamide]
36-56	Cn1c(Nc2nc3ccc(OCC(F)(F)F)cc3o2)nc2cc(C(=O)O)ccc21 [Example 98, 1-methyl-2-((6-(2,2,2-trifluoroethoxy)benzo[d]oxazol-2-yl)amino)-1H-benzo[d]imidazole-5-carboxylic acid]
29-38	Cn1c(Nc2nc3ccc(OC(F)(F)F)cc3o2)nc2cc(C(=O)NCCO)ccc21 [Example 53, N-(2-hydroxyethyl)-1-methyl-2-((6-(trifluoromethoxy)benzo[d]oxazol-2-yl)amino)-1H-benzo[d]imidazole-5-carboxamide]
60	CC(C)c1ccc2nc(Nc3nc4cc(C(=O)NCCO)ccc4n3C)oc2c1 [Example 61, N-(2-hydroxyethyl)-2-((6-isopropylbenzo[d]oxazol-2-yl)amino)-1-methyl-1H-benzo[d]imidazole-5-carboxamide]
56-93	CN(C)CC(=O)NCCNC(=O)c1ccc2c(c1)nc(Nc1nc3ccc(C(F)(F)F)cc3o1)n2C [Example 40, N-(2-(2-(dimethylamino)acetamido)ethyl)-1-methyl-2-((6-(trifluoromethyl)benzo[d]oxazol-2-yl)amino)-1H-benzo[d]imidazole-5-carboxamide]
30	CC(O)COCCNC(=O)c1ccc2c(c1)nc(Nc1nc3ccc(C(F)(F)F)cc3o1)n2C (stereo not shown) [Example 38, N-(2-(2-hydroxypropoxy)ethyl)-1-methyl-2-((6-(trifluoromethyl)benzo[d]oxazol-2-yl)amino)-1H-benzo[d]imidazole-5-carboxamide]
11-18	Cn1c(Nc2nc3ccc(OC(F)F)cc3o2)nc2cc(C(=O)NCCO)ccc21 [Example 64, 2-((6-(difluoromethoxy)benzo[d]oxazol-2-yl)amino)-N-(2-hydroxyethyl)-1-methyl-1H-benzo[d]imidazole-5-carboxamide]
29	Cn1c(Nc2nc3cc(F)c(C(F)(F)F)cc3o2)nc2cc(C(=O)NCCO)ccc21 [Example 108, 2-((5-fluoro-6-(trifluoromethyl)benzo[d]oxazol-2-yl)amino)-N-(2-hydroxyethyl)-1-methyl-1H-benzo[d]imidazole-5-carboxamide]

Same assay, conditions: human HMOX1 protein in HepG2 lysate, ELISA; * = average of 2 or more EC50 determinations; NA = Not Active

Structure (SMILES)	pEC50
CCn1c(Nc2nc3ccc(OC(F)(F)F)cc3o2)nc2cc(C(=O)NCCOC)ccc21 [Example 85, 1-ethyl-N-(2-methoxyethyl)-2-((6-(trifluoromethoxy)benzo[d]oxazol-2-yl)amino)-1H-benzo[d]imidazole-5-carboxamide]	5.89
